Laboratory results as given in US5795907A, “Gastin and CCK receptor ligands” (James Black Foundation Limited, priority 1994, dated 1998).

What was measured:
CCKB receptor = target: T1, CCKB receptor (Mus musculus, UniProt P56481); assay: CCKB receptor radioligand binding assay in mouse cortical membranes ([125I]-CCK8S); conditions: [125I]-CCK8S 200 pM, 150 min at 21±3°; for Ki: read-out: CCKB pKi (converted)
T1 construct: The cortex was dissected, weighed and homogenised in 40ml ice-cold buffer; tissue Charles River (supplier of the CD1 mice); host or cells: cerebral cortex membranes of male CD1 mice
T1 sequence (P56481 1-453): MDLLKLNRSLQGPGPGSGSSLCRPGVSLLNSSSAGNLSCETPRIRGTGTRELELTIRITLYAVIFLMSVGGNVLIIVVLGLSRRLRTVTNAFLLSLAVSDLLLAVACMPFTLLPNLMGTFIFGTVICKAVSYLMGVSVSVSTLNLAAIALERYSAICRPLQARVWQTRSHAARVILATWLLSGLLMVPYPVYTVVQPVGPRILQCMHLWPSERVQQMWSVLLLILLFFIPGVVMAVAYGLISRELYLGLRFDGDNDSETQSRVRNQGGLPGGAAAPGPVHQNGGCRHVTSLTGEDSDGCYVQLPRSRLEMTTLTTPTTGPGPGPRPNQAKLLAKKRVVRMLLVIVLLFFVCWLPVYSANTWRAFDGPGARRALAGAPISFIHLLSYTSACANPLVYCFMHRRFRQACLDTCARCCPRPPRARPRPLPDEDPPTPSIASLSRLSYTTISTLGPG
Experimental: The compounds of the examples were tested for binding at the CCKB receptor in mouse cortical membranes by means of a radioligand binding assay. The procedure was as follows:
The whole brains from male mice (CD1 22-25 g; Charles River) were removed and placed in ice-cold buffer (pH7.2 @ 21±3°) of the following composition (mM); 10 HEPES, 130 NaCl, 4.7 KCl, 5 MgCl2, 1 EDTA and containing 0.25g.^-1 bacitracin. The cortex was dissected, weighed and homogenised in 40ml ice-cold buffer using a Teflon-in-glass homogeniser. The homogenate was centrifuged at 39,800g for 20 min at 4°, the supernatant discarded and the pellet resuspended by homogenisation in fresh buffer. The homogenate was recentrifuged (39,800 g; 20 min @ 4°) and the final pellet was resuspended in HEPES buffer to give a tissue concentration of 2 mg.ml^-1 (original wet weight).
The membranes ([…]) were incubated for 150 min at 21±3° in a final volume of 0.5 ml with HEPES buffer containing [^125 I]-CCK8S (0.05 ml; 200 pM NEN 2200 Ci.mmol^-1) and competing compound. Total and non-specific binding of [^125 I]-CCK8S were defined using 0.05 ml of buffer and 0.05 ml of […] L-365,260, respectively. The assay was terminated by rapid filtration through pre-soaked Whatman GF/B filters using a Brandell Cell harvester. The filters were washed (3×3 ml) with ice-cold 50 mM Tris-HCl (pH7.4 @ 4° C.) and bound radioactivity determined by counting (1 min.) in a gamma-counter.

gastrin = target: T2, gastrin (Rattus norvegicus, UniProt P30553); assay: gastrin antagonist activity in an immature rat stomach assay (pentagastrin-stimulated acid secretion); conditions: cumulative pentagastrin dose-response curves after 60 min with drug; for Kb: read-out: Gastrin pKB (converted)
T2 construct: The stomach was lowered into a jacketed organ bath containing 40 ml of buffered solution; from tissue; host or cells: isolated perfused whole stomach of immature rats (ca. 21 days old)
T2 sequence (P30553 1-452): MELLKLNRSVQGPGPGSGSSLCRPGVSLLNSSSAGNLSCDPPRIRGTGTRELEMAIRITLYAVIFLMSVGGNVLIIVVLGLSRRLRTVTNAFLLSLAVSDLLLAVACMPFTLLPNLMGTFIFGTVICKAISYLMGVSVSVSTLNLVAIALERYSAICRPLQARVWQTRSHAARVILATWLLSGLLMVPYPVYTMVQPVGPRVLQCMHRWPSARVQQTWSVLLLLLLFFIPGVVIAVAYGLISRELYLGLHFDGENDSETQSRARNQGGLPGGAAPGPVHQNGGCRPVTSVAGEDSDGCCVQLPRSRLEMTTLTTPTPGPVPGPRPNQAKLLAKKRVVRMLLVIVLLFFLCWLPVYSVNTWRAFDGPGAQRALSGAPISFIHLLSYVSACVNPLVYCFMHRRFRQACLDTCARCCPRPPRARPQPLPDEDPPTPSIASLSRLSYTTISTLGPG
Experimental: The compounds of the examples were also tested for gastrin antagonist activity in an immature rat stomach assay. The procedure was as follows:
The oesophagus of immature rats (33-50 g, ca. 21 days old) was ligated at the level of the cardiac sphincter and the duodenal sphincter was cannulated. The stomach was excised and flushed with ca. 1 ml of unbuffered physiological saline solution. The fundus was punctured and cannulated. A further 4-5 ml of unbuffered solution was flushed through the stomach to ensure the preparation was not leaking. The stomach was lowered into a jacketed organ bath containing 40 ml of buffered solution containing 3×10^-8 M 5-methylfurmethide, maintained at 37° and gassed vigorously with 95% O2 /5% CO2. The stomach was continuously perfused at a rate of 1 ml min^-1 with unbuffered solution gassed with 100% O2 with the perfusate passing over an internally referenced pH-electrode fixed 12 cm above the stomach.
After 120 min of stabilisation the drugs were added directly to the serosal solution in the organ bath and after a further 60 min cumulative pentagastrin dose-response curves were started. Changes in acid secretion were monitored and the curves analysed according to Black et.al., Br. J. Pharmacol., 1985, 86, 581.

CCKA = target: T3, CCKA (Cavia porcellus, UniProt Q63931); assay: CCKA radioligand binding assay in guinea-pig pancreas membranes ([125I]-CCK8(S)); conditions: PD134,308 present, 150 minutes at 21±3°; for Ki: read-out: CCKA pKi (converted)
T3 construct: The pancreatata were homogenised in 40 ml ice-cold HEPES buffer using a polytron; from tissue; host or cells: pancreas membranes of male Dunkin Hartley guinea-pigs
T3 sequence (Q63931 1-430): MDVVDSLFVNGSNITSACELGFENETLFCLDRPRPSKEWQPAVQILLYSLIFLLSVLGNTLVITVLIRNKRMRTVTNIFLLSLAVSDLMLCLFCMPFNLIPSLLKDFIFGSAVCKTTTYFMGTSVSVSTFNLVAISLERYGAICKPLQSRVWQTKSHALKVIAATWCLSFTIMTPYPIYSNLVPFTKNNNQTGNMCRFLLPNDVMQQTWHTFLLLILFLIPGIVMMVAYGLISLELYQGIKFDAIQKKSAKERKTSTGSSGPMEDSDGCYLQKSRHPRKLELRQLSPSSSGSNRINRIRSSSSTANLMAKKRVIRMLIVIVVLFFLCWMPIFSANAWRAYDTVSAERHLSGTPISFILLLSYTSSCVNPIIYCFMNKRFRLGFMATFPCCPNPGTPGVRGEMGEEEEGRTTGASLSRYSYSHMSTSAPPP
Experimental: The compounds of the examples were also tested in a CCKA as follows:
The pancreatata were removed from male guinea-pigs (200-300 g; Dunkin Hartley) and placed in ice-cold HEPES buffer (pH 7.2 @ 21 ±3). The pancreatata were homogenised in 40 ml ice-cold HEPES buffer using a polytron (Brinkmann, PT10, setting 10) 4×1 second. The homogenate was centrifuged at 39,800 g for 15 min at 4°. The supernatant was discarded and the pellet re-suspended using a Teflon-in-glass homogeniser in 20 volumes of fresh buffer and re-centrifuged as above.
The final pellet was re-suspended using a Teflon-in-glass homogeniser to a tissue concentration of 1 mg.ml^-1 (original wet weight), and filtered through 500 μm pore-size Nytex mesh.
The membranes (400 μl; containing 0.375 μM PD134,308) are incubated for 150 minutes at 21±3° in a final volume of 0.5 ml with HEPES buffer containing [^125 I]-CCK8 (S) (50 μl; […]) and competing compound. Total and non-specific binding of [^125 I]-CCK8 (S) are defined using 50 μl of buffer and 50 μl of 100 nM L-364,718 respectively. The assay is terminated by rapid filtration through pre-soaked Whatman GF/B filters using a Brandell Cell Harvester. The filters were washed (3×3 ml) with ice-cold 50 mM Tris HCl (pH 7.4 at 4°) and bound radioactivity is determined by counting (1 min) in a gamma counter.

Compound | CCKB pKi (CCKB receptor) | Ki (CCKB receptor) [nM] | Kb (gastrin) [nM] | Ki (CCKA) [nM] | other results
O=C(O)c1cc(NC(=O)[C@H](Cc2ccc(I)cc2)NC(=O)c2cc3cc[nH]c3cc2C(=O)NCC23CC4CC(CC(C4)C2)C3)cc(C(=O)O)c1 [Example 32, 5-(1S-(3,5-dicarboxyphenylaminocarbonyl)-2-(4-iodophenyl)ethylaminocarbonyl)-6-(1-adamantanemethylaminocarbonyl)-indole] |  | 3.98 | 0.794 |  | 
O=C(NS(=O)(=O)c1cccc(NC(=O)[C@H](Cc2ccccc2)NC(=O)c2cc3[nH]cnc3cc2C(=O)NCC23CC4CC(CC(C4)C2)C3)c1)c1ccccc1 [Example 139, 5-(1S-(3-benzoylaminosulphonylphenylaminocarbonyl)-2-phenylethylaminocarbonyl)-6-(1-adamantanemethylaminocarbonyl)-benzimidazole] |  | 15.8 | 79.4 |  | 
Cn1ccc2cc(C(=O)N[C@@H](Cc3ccccc3)C(=O)Nc3cc(C(=O)O)cc(C(=O)O)c3)c(C(=O)NCC34CC5CC(CC(C5)C3)C4)cc21 [Example 36, 5-(1S-(3,5-dicarboxyphenylaminocarbonyl)-2-phenylethylaminocarbonyl)-6-(1-adamantanemethylaminocarbonyl)-N-methyl-indole] |  | 0.398 |  | 3160 | 
O=C(NCC12CC3CC(CC(C3)C1)C2)c1cc2[nH]ccc2cc1C(=O)N[C@@H](Cc1ccccc1)C(=O)Nc1cc(NC(=O)C(F)(F)F)cc(NC(=O)C(F)(F)F)c1 [Example 94, 5-(1S-(3,5-di-trifluoromethylcarbonylaminophenylamino-carbonyl)-2-phenylethylaminocarbonyl)-6-(1-adamantanemethylaminocarbonyl)-indole] | 6.7 |  |  |  | CCKA pKi (CCKA): 5.0
1/2-(1-adamantanemethylaminocarbonyl)-naphthoic acid Regioisomer 2 [Example 22] | 5.9 |  |  |  | CCKA pKi (CCKA): 5.4
O=C(NCC12CC3CC(CC(C3)C1)C2)c1cc2cc[nH]c2cc1C(=O)N[C@@H](Cc1ccccc1F)C(=O)Nc1cc(-c2nn[nH]n2)cc(-c2nn[nH]n2)c1 [Example 98, 6-(1S-(3,5-ditetrazolylphenylaminocarbonyl)-2-(2-fluorophenyl)ethylaminocarbonyl)-5-(1-adamantanemethylaminocarbonyl)-indole] |  | 3.98 |  | 200 | 
NS(=O)(=O)c1cc(NC(=O)[C@H](Cc2ccccc2)NC(=O)c2cc3cc[nH]c3cc2C(=O)NCC23CC4CC(CC(C4)C2)C3)cc(S(N)(=O)=O)c1 [Example 96, 5-(1S-(3,5-di-aminosulphonylphenylaminocarbonyl)-2-phenylethylaminocarbonyl)-6-(1-adamantanemethylaminocarbonyl)-indole] | 6.3 |  |  |  | CCKA pKi (CCKA): 5.7

Continued, in another order:

CCKB pKi (CCKB receptor) | Ki (CCKB receptor) [nM] | Kb (gastrin) [nM] | Ki (CCKA) [nM] | Compound | other results
7.0 |  |  |  | 3-(1S-(3,5-dicarboxyphenylaminocarbonyl)-2-phenylethylaminocarbonyl)-2-(1-adamantanemethylaminocarbonyl)-1-phenylnaphthalene and its regioisomer with groups at positions 2 and 3 reversed [Example 56] | Gastrin pKB (gastrin): 7.1
 | 1260 | 251 |  | O=C(O)CNC(=O)[C@H]1CCCN1C(=O)c1cc2ccccc2cc1C(=O)NCC12CC3CC(CC(C3)C1)C2 [Example 11, 2-(2R-carboxymethylaminocarbonylpyrrolidinocarbonyl)-3-(1-adamantanemethylaminocarbonyl)-naphthalene] | 
 |  | 39.8 |  | O=C(O)c1cc(NC(=O)[C@@H](Cc2ccccc2)NC(=O)c2cc3ccccc3cc2C(=O)NCC23CC4CC(CC(C4)C2)C3)cc(C(=O)O)c1 [Example 23, 2-(1R-(3,5-dicarboxyphenylaminocarbonyl) -2-phenylethylaminocarbonyl)-3-(1-adamantanemethylaminocarbonyl)-naphthalene] | 
 | 1260 |  | 1260 | O=C(NCC12CC3CC(CC(C3)C1)C2)c1cc2nc[nH]c2cc1C(=O)N[C@@H](Cc1ccccc1)C(=O)Nc1ccc(F)cc1 [Example 68, 5-(1S-(4-fluorophenylaminocarbonyl)-2-phenylethylaminocarbonyl)-6-(1-adamantanemethylaminocarbonyl)-benzimidazole] | 
 | 63.1 |  | 1260 | O=C(O)c1cc(NC(=O)[C@H](Cc2ccccc2)NC(=O)c2cc3[nH]c4ccccc4c3cc2C(=O)NCC23CC4CC(CC(C4)C2)C3)cc(C(=O)O)c1 [Example 52, 2-(1S-(3,5-dicarboxyphenylaminocarbonyl)-2-phenylethylaminocarbonyl)-3-(1-adamantanemethylaminocarbonyl)-carbazole] | 
